# US6448283B1, “Methods for preventing/treating damage to sensory hair cells and cochlear neurons” (Cephalon, Inc., priority 1998, dated 2002)
# “And” between values parts separate entries of the source, which are not always exact repeats. Equal values may be shown once. “Also recorded” adds a separate entry of the source.
# Legend:
# [1] = system: hair cells of the organ of Corti; test: TUNEL staining of apoptotic hair cells in noise-exposed cochleas; format: in vivo, guinea pig; settings: first 6 days after noise exposure
# Method: Adult Dunkin-Hartley female guinea pigs (weight 300-500 g) were exposed, 4 animals at a time, to octave band noise, with a center frequency of 4.0 kHz, 120 dB SPL for 6 hr as described in Example 1. Fragmented hair cell nuclei were assessed from noise-exposed cochleas immediately and 1, 2, 4, 6, 8 and 14 days after noise exposure. Noise-exposed and nonexposed guinea pigs were decapitated under deep anesthesia and inner ears were perilymphatically perfused with 4% paraformaldehyde in PBS, and processed for […] paraffin-embedded sections (Ylikoski et al., Hear Res 65:69-78, 1993; Ylikoski et al., Hear Res 124:17-26, 1998). TUNEL-staining was performed as described below. DNA fragmentation was also verified by DAPI nuclear counterstain (see below). Further, trauma-induced nuclear fragmentation was verified by morphological analysis of contralateral cochleas that were perilymphatically fixed with 2.5% glutaraldehyde in 0.1M phosphate buffer, pH 7.4, postfixed with 1% osmium tetroxide, embedded in epoxy resin, and prepared for surface preparations (see below). Selected cochlear segments were then cut in transverse and horizontal planes to semi-thin ([…]) sections that were stained with 1% toluidine blue. Analysis was done under an Olympus Provis microscope equipped with Nomarski optics. […]
# [2] = system: noise-exposed guinea pigs; test: ABR threshold shifts, delayed dosing after noise trauma; format: in vivo, guinea pig
# Method: (§1) Guinea pigs were exposed to 120 dB, 4 kHz noise for 6 hr. The compound of Formula II was administered beginning 2 hours to 1 day prior to noise trauma, or 1 day after noise trauma, or 4 days after noise trauma. Dosing continued for 2 weeks after noise exposure. As described above, cochleas were prepared and numbers of preserved and lost inner hair cells (IHCs) and outer hair cells of different rows (OHC1, OHC2, OHC3) were counted 2 weeks post noise trauma.
# ABRs were determined 1 day before noise trauma (baseline values) and 2 weeks post noise trauma. […] Thresholds were determined at frequencies 2, 4, 8, 16 and 32 kHz from a set of responses at varying intensities with 5 dB intervals and 1000 sweeps near the threshold. ABRs were measured with System II hardware and BioSig software. Ketamine (40 mg/kg) and xylazine (10 mg/kg) were used for anaesthesia.
# [3] = system: gentamicin-treated guinea pigs; test: ABR threshold shifts after gentamicin treatment; format: in vivo, guinea pig; settings: gentamicin 120 mg/kg s.c. 14 days plus Formula II 1 mg/kg daily; day 30; n=8; P<0.01
# Method: Adult Dunkin-Hartley female guinea pigs (weight 300-400 g) were used. They were given free access to water and a regular guinea pig diet. The animals were given 1 week of adjustment before baseline ABR recordings and gentamicin (GM) treatment.
# Two experimental groups were formed. Group 1 guinea pigs served as control and were treated with gentamicin only. The animals were injected s.c. with gentamicin at 120 mg/kg body weight, once daily for 14 days. Three guinea pigs (yielding a total of 6 inner ears) were included in this group. The animals were decapitated 30 days after the start of the injections.
# Group 2 guinea pigs were treated with gentamicin plus Formula II. The animals were injected s.c. with GM at 120 mg/kg body weight, plus Formula II at 1 mg/kg, once daily for 14 days. Formula II treatment started 1 day before GM injections. Formula II treatment was continued for 28 or 29 days. Four guinea pigs (8 inner ears) were included in this group. The animals were decapitated 30 days after the start of GM injections.
# ABRs were determined 1 day before GM injections (baseline values) and at day 30 after the start of the GM injections. […] Thresholds were determined at frequencies 2, 4, 8, 16 and 32 kHz from a set of responses at varying intensities with 5 dB intervals and 1000 sweeps near the threshold. ABRs were measured with System II hardware and BioSig software. […]
# [4] = system: JNK signaling cascade (JNK and c-Jun phosphorylation); test: Phospho-JNK and phospho-c-Jun immunostaining in neomycin-exposed cochlear explants; format: cell-based, rat; settings: 500 nM Formula II coincubated with neomycin; n=5 explants
# Method: Six, 12 and 24 hr after adding 100 μM neomycin to the medium, cochlear cultures were fixed with 4% paraformaldehyde in PBS for 30 min. The specimens were prepared for 5 um-thick paraffin sections. They were stained with a TUNEL-kit, mounted in Vectashield containing DAPI nuclear counterstain (Vector, Burlingame, Calif.), and viewed under an Olympus Provis microscope (Tokyo, Japan) using epifluorescence. In addition to TUNEL-staining, DNA fragmentation was verified under UV illumination using DAPI counterstain.
# Adjacent sections were immunostained with a polyclonal phospho-c-Jun antibody (Ser73, 1:500; New England Biolabs, Beverly, Mass.) and a polyclonal phospho-JNK antibody (Thr183/Tyr185, 1:250 dilution; New England Biolabs). The phospho-JNK antibody detects the dually phosphorylated isoforms of JNK 1, 2 and 3. The specificity of the phospho-specific antibodies was verified by Western blotting using sorbitol-treated PC 12 cells. Phospho-JNK antibody recognized the phosphorylated p54/p46 JNK and phospho-c-Jun antibody the phosphorylated p46 c-Jun in sorbitol-treated, but not in untreated PC 12 cells. […] Calbindin immunoreaction was detected using the ABC method and diaminobenzidine without tyramide signal amplification, and the sections were lightly counterstained with 1% toluidine blue. […]
# [5] = system: inner and outer hair cells of the cochlea; test: Hair cell counts, delayed dosing after noise trauma; format: in vivo, guinea pig
# Method: as §1
# [6] = system: hair cells (IHC, OHC) of the organ of Corti; test: Cytocochleograms of missing hair cells after noise exposure (Example 2); format: in vivo, guinea pig; settings: 2 weeks after noise exposure
smiles,measurement,setting,value
CCSCc1ccc2c(c1)c1c3c(c4c5cc(CSCC)ccc5n5c4c1n2C1C[C@](O)(C(=O)OC)[C@]5(C)O1)CNC3=O [Formula II],amount of apoptotic hair cell loss versus control cochleas,[1],less
same,average threshold shift of control animals greater than that of treated animals,"[2]; Formula II begun prior to the lesion, noise 120 dB 4 kHz 6 hr, 2 weeks post noise",20-40 dB
same,"ABR threshold shift versus vehicle-treated, noise-exposed controls","[2]; Formula II-treated animals, 2 weeks post noise",less threshold shift at all frequencies tested
same,"ABR threshold shift, delayed administration",[2]; administration begun 1 or 4 days after exposure to noise,Decreased threshold shifts
same,ABR threshold shift versus control cochleas (GM only),[3],less threshold shift at all frequencies tested
same,induction of JNK and c-Jun phosphorylation in hair cells,[4],prevented
same,OHC loss total (%),"[5]; 1 day delayed dosing, single cochlea",6.4% and 3.7% and 1.2% and 2.0% and 5.4% and 2.4%
same,loss of hair cells versus control cochleas,"[5]; following exposure to noise, 1 day delayed P<0.01, 4 day delayed P<0.05",less loss of hair cells
same,hair cell loss versus noise-exposed control (cytocochleograms),[6]; in words,rescues IHCs as well as OHCs of each of the 3 rows; also recorded: significantly lower percentage of sensory hair cells were lost
same,extent of the area of destruction of the organ of Corti,[6]; Formula II treated cochleas,0.1-0.2 mm
